Experimental data published in publication PMC11228755 (RSC Advances, 2024).
Values joined by “and” are separate entries in the source; they are usually repeats but may differ in a detail not shown here. Equal entries are not always repeated. Marks after values point to notes of the source that are not given here.

Assays:
[1] = system: Salmonella typhimurium TA102; details: positive control, 20 μg per plate, +S9
[2] = system: Salmonella typhimurium TA97a; assay: Ames test; details: positive control, 50 μg per plate, −S9
[3] = system: Salmonella typhimurium TA98; assay: Ames test; details: positive control, 50 μg per plate, −S9
[4] = system: Salmonella typhimurium TA100; assay: Ames test; details: positive control, 1 μg per plate, −S9
[5] = system: Salmonella typhimurium TA1535; assay: Ames test; details: positive control, 1 μg per plate, −S9

Nc1ccc2cc3ccccc3cc2c1 [2-Aminoanthracene, 2-aminoanthracene]
Number of revertants TA102 [1]: 2121 ± 21 ^e

CN(C)c1ccc(N=NS(=O)(=O)[O-])cc1.[Na+] [Dioxone, dioxone]
Number of revertants TA97a [2]: 1872 ± 104 ^a
Number of revertants TA98 [3]: 1111 ± 117 ^a

[N-]=[N+]=[N-].[Na+] [Sodium azide, sodium azide]
Number of revertants TA100 [4]: 1697 ± 54 ^c
Number of revertants TA1535 [5]: 1190 ± 40 ^c and 1333 ± 53 ^c
